The values below come from patent US20090202596A1, “PHARMACEUTICAL COMPOSITIONS WITH BIOLOGICAL BARRIERS PERMEATION ENHANCING PROPERTIES” (FARMATRON LIMITED, priority 2006, published 2009).

The data set can be described thus: In vitro solubilization kinetics in buffer solution. It is filed as physicochemical. Conditions: buffer pH 7.4, 37° C., HPLC. On the procedure: Solubilization Kinetics of the Double Microemulsions of the Invention
The “in vitro” solubilization kinetics was determined in buffer solution (pH 7.4, 37° C.); sample of the double microemulsion under testing is dispersed in tubes filled with 50 ml of buffer solution and placed over a thermostated shaking plate; at predetermined time intervals samples of the solution were filtered and then ultra-centrifuged; drug concentration was determined by HPLC, data are reported in Table 2.

`CCC(C)n1ncn(-c2ccc(N3CCN(c4ccc(OCC5COC(Cn6cncn6)(c6ccc(Cl)cc6Cl)O5)cc4)CC3)cc2)c1=O` (centres unmarked) [Itraconazole pure dispersion, Itraconazole] showed a Drug concentration (0.5 hr) of 50 ng/mL; a Drug concentration (1 hr) of 100 ng/mL; a Drug concentration (3 hr) of 300 ng/mL; a Drug concentration (8 hr) of 500 ng/mL; a Drug concentration (24 hr) of 1500 ng/mL.
